Laboratory results taken from ChEMBL document CHEMBL1125470, “Novel sulfonamides as potential, systemically active antitumor agents” (J Med Chem, 1992).
Converted amounts (≈) assume the structure as drawn.

Tests used:
[1] = system: MC-38; test: In vitro inhibitory activity against colon 38 cell proliferation; format: functional, cell-based; conditions: Mus musculus
[2] = system: KB; test: In vitro inhibitory activity against KB (human carcinoma of the nasopharynx) cell proliferation.; format: functional, cell-based
[3] = system: Mus musculus; test: Ratio between dead mices and total mices at the dose of 50 (mg/kg/day.); 0/6; format: functional
[4] = system: MC-38; test: Ratio between Tumor weight of treated mice and Tumor weight of control mice * 100 at the dose of 200 (mg/kg/day.); format: functional
[5] = system: MC-38; test: Ratio between Tumor weight of treated mice and Tumor weight of control mice * 100 at the dose of 100 (mg/kg/day.); format: functional
[6] = system: Mus musculus; test: Ratio between dead mices and total mices at the dose of 200 (mg/kg/day.); 0/6; format: functional
[7] = system: Mus musculus; test: Ratio between dead mices and total mices at the dose of 100 (mg/kg/day.); 0/6; format: functional
[8] = system: MC-38; test: Ratio between Tumor weight of treated mice and Tumor weight of control mice * 100 at the dose of 50 (mg/kg/day.); format: functional
[9] = system: Mus musculus; test: Ratio between dead mices and total mices at the dose of 400 (mg/kg/day.); 0/6; format: functional
[10] = system: MC-38; test: Ratio between Tumor weight of treated mice and Tumor weight of control mice * 100 at the dose of 400 (mg/kg/day.); format: functional
[11] = system: Mus musculus; test: Ratio between dead mices and total mices at the dose of 25 (mg/kg/day.); 0/6; format: functional
[12] = system: MC-38; test: Ratio between Tumor weight of treated mice and Tumor weight of control mice * 100 at the dose of 12.5 (mg/kg/day); format: functional
[13] = system: MC-38; test: Ratio between Tumor weight of treated mice and Tumor weight of control mice * 100 at the dose of 25 (mg/kg/day); format: functional
[14] = system: MC-38; test: Ratio between Tumor weight of treated mice and Tumor weight of control mice * 100 at the dose of 100 (mg/kg/day); format: functional
[15] = system: Mus musculus; test: Ratio between dead mices and total mices at the dose of 12.5 (mg/kg/day.); 0/6; format: functional
[16] = system: MC-38; test: Ratio between Tumor weight of treated mice and Tumor weight of control mice * 100 at the dose of 50 (mg/kg/day); format: functional
[17] = system: MC-38; test: Ratio between Tumor weight of treated mice and Tumor weight of control mice * 100 at the dose of 200 (mg/kg/day); format: functional
[18] = system: Mus musculus; test: Ratio between dead mices and total mices at the dose of 200 (mg/kg/day.); 2/6; format: functional

| Structure (SMILES) | IC50 [1] | IC50 [2] | Deaths/total [3] | T/C [4] | T/C [5] | Deaths/total [6] | Deaths/total [7] | T/C [8] | Deaths/total [9] | T/C [10] | Deaths/total [11] | T/C [12] | T/C [13] | T/C [14] | Deaths/total [15] | T/C [16] | T/C [17] | Deaths/total [18] |
| --- | --- | --- | --- | --- | --- | --- | --- | --- | --- | --- | --- | --- | --- | --- | --- | --- | --- | --- |
| Cc1ccc(S(=O)(=O)Nc2ccccc2Nc2ccccc2)cc1 | 1.2 µg/mL (≈ 3.55 µM) | 0.46 µg/mL (≈ 1.36 µM) |  |  |  |  |  |  |  |  |  |  |  |  |  |  |  |  |
| COc1ccc(S(=O)(=O)Nc2cccnc2Nc2ccccc2)cc1 | 0.45 µg/mL (≈ 1.27 µM) | 0.27 µg/mL (≈ 0.76 µM) | 0 | 1% | 2% | 0 | 0 | 27% |  |  |  |  |  |  |  |  |  |  |
| Cc1ccc(S(=O)(=O)Nc2cccnc2Nc2ccccc2)cc1 | 3.2 µg/mL (≈ 9.43 µM) | 1.5 µg/mL (≈ 4.42 µM) |  | 19% | 20% | 0 | 0 |  | 0 | 1% |  |  |  |  |  |  |  |  |
| COc1ccc(S(=O)(=O)Nc2cccnc2Nc2ccc(O)cc2)cc1 [ABT-751] | 0.38 µg/mL (≈ 1.02 µM) | 0.29 µg/mL (≈ 0.781 µM) | 0 |  |  |  | 0 |  |  |  | 0 | 59% | 32% | 2% | 0 | 3% |  |  |
| COc1ccc(Nc2ncccc2NS(=O)(=O)c2ccc(OC)cc2)cc1 | 3.6 µg/mL (≈ 9.34 µM) | 1.9 µg/mL (≈ 4.93 µM) | 0 |  | 1% |  | 0 | 30% |  |  |  |  |  |  |  |  | 0% | 2 |
| COc1ccc(S(=O)(=O)Nc2cccnc2Nc2ccncc2)cc1 | 1.4 µg/mL (≈ 3.93 µM) | 1 µg/mL (≈ 2.81 µM) | 0 |  |  |  |  |  |  |  | 0 | 41% | 35% |  | 0 | 14% |  |  |
